Key:
[1] = Methyltransferase panel, 10-dose IC50 mode; assay type: biochemical; settings: Substrate: Core Histone; 1 μM SAM; read-out: Control IC50*
Description: (§1) Compound 72b was further tested against a plurality of methyltransferases as described in the following. […] Reactions were carried out at 1 μM SAM. Curve fits were performed where the enzyme activities at the highest concentration of compounds were less than 65%. […] Compound 72b is referred to as KMI9542321 in the table below.

DNMT3a = DNMT3a (Homo sapiens (Human), UniProt Q9Y6K1); test: Methyltransferase panel, 10-dose IC50 mode; assay type: biochemical; settings: Substrate: Lambda DNA; 1 μM SAM; read-out: Control IC50*
Description: as §1

DNMT3b = DNMT3b (Homo sapiens (Human), UniProt Q9UBC3); test: Methyltransferase panel, 10-dose IC50 mode; assay type: biochemical; settings: Substrate: Lambda DNA; 1 μM SAM; read-out: Control IC50*
Description: as §1

DNMT3b/3L = DNMT3b/3L (Homo sapiens (Human), UniProt Q9UBC3); test: Methyltransferase panel, 10-dose IC50 mode; assay type: biochemical; settings: Substrate: Lambda DNA; 1 μM SAM; read-out: Control IC50*
Description: as §1

GLP = GLP (Homo sapiens (Human), UniProt Q9H9B1); test: Methyltransferase panel, 10-dose IC50 mode; assay type: biochemical; settings: Substrate: Histone H3 (1-21); 1 μM SAM; read-out: Control IC50*
Description: as §1

MLL1 Complex = MLL1 Complex (Homo sapiens (Human), UniProt Q03164); test: Methyltransferase panel, 10-dose IC50 mode; assay type: biochemical; settings: Substrate: Nucleosomes; 1 μM SAM; read-out: Control IC50*
Description: as §1

MLL3 Complex = MLL3 Complex (Homo sapiens (Human), UniProt Q8NEZ4); test: Methyltransferase panel, 10-dose IC50 mode; assay type: biochemical; settings: Substrate: Core Histone; 1 μM SAM; read-out: Control IC50*
Description: as §1

NRMT1 = NRMT1 (Homo sapiens (Human), UniProt Q9BV86); test: Methyltransferase panel, 10-dose IC50 mode; assay type: biochemical; settings: Substrate: RCC1; 1 μM SAM; read-out: Control IC50*
Description: as §1

NRMT2 = NRMT2 (Homo sapiens (Human), UniProt Q5VVY1); test: Methyltransferase panel, 10-dose IC50 mode; assay type: biochemical; settings: Substrate: RCC1; 1 μM SAM; read-out: Control IC50*
Description: as §1

NSD1 = NSD1 (Homo sapiens (Human), UniProt Q96L73); test: Methyltransferase panel, 10-dose IC50 mode; assay type: biochemical; settings: Substrate: Nucleosomes; 1 μM SAM; read-out: Control IC50*
Description: as §1

PRMT3 = PRMT3 (Homo sapiens (Human), UniProt O60678); test: Methyltransferase panel, 10-dose IC50 mode; assay type: biochemical; settings: Substrate: Histone H4; 1 μM SAM; read-out: Control IC50*
Description: as §1

PRMT6 = PRMT6 (Homo sapiens (Human), UniProt Q96LA8); test: Methyltransferase panel, 10-dose IC50 mode; assay type: biochemical
Description: as §1

SET1b Complex = SET1b Complex (Homo sapiens (Human), UniProt Q9UPS6); test: Methyltransferase panel, 10-dose IC50 mode; assay type: biochemical; settings: Substrate: Core Histone; 1 μM SAM; read-out: Control IC50*
Description: as §1

SET7/9 = SET7/9 (Homo sapiens (Human), UniProt Q8WTS6); test: Methyltransferase panel, 10-dose IC50 mode; assay type: biochemical; settings: Substrate: Core Histone; 1 μM SAM; read-out: Control IC50*
Description: as §1

SETD2 = SETD2 (Homo sapiens (Human), UniProt Q9BYW2); test: Methyltransferase panel, 10-dose IC50 mode; assay type: biochemical; settings: Substrate: Nucleosomes; 1 μM SAM; read-out: Control IC50*
Description: as §1

SMYD3 = SMYD3 (Homo sapiens (Human), UniProt Q9H7B4); test: Methyltransferase panel, 10-dose IC50 mode; assay type: biochemical; settings: Substrate: MEKK2; 1 μM SAM; read-out: Control IC50*
Description: as §1

SUV39H2 = SUV39H2 (Homo sapiens (Human), UniProt Q9H5I1); test: Methyltransferase panel, 10-dose IC50 mode; assay type: biochemical; settings: Substrate: Histone H3; 1 μM SAM; read-out: Control IC50*
Description: as §1

SUV420H1TV2 = SUV420H1TV2 (Homo sapiens (Human), UniProt Q4FZB7); test: Methyltransferase panel, 10-dose IC50 mode; assay type: biochemical; settings: Substrate: Nucleosomes; 1 μM SAM; read-out: Control IC50*
Description: as §1

KMT9 [2] = biological target: T1, KMT9 (Homo sapiens (Human), UniProt Q9Y5N5); test: Methylation assay to test KMT9-inhibition ([3H]SAM, filter binding, scintillation); assay type: biochemical; settings: ETF1 or histone H4 substrate
Description: Methylation assays were performed to test inhibition of the KMT9 methyltransferase activity by compound 72b. To test the compound, 1 μL of the compound, dissolved in DMSO at different concentrations, was added to a 0.5 ml tube (Brand Gmbh&Co KG). Afterwards, 4 μL of assay buffer (50 mM BTP, 1 mM MgCl2, 1 mM DTT, 0.01% TX-100, pH 8.5) were added together with 10 μL of 2× solution of KMT9 diluted in assay buffer (final concentration 0.025-0.6 μM). The solutions were mixed and incubated for 20 min at room temperature, shaking at 300 rpm. Afterwards, 5 μL of 4× Protein-SAM mix was added (final concentrations: 5 μM ETF1 or histone H4, SAM: 1-2.5 μM (including 30% of radioactively labelled [3H]SAM)) to a final assay volume of 20 μL. The reaction mixtures were mixed and incubated in an Eppendorf thermomixer comfort for 2 h at 30° C., shaking at 300 rpm. The reaction was quenched using 5 μL of 50% trichloroacetic acid (TCA) in water, mixed and incubated for 5 min at room temperature without shaking. […] The scintillation signal was measured for 3×1 min using Tri-Carb 2910 TR (PerkinElmer) scintillation counter in [^3H] […]

KMT9 [3] = biological target: T1, KMT9; test: Microscale thermophoresis (MST) KMT9-binding; settings: His-tag labelled KMT9 20 nM; read-out: Binding affinity in MST
Description: To determine the binding affinity of the compound to KMT9, microscale thermophoresis (MST) analysis was performed with a NanoTemper Monolith NT.115 instrument (NanoTemper Technologies GmbH). KMT9 was labelled with a RED-Tris-NTA labelling kit (NanoTemper Technologies GmbH) based on the manufacturer's instructions. Buffer including 25 mM HEPES (pH 7.5), 100 mM NaCl, 1 mM DTT and 0.05% Tween was used for the reaction buffer. Varying concentrations of the compound were titrated against His-tag labelled KMT9 proteins (20 nM). Samples were loaded into standard Capillaries (NanoTemper Technologies GmbH) and MST measurements were performed using 40% MST power and 100% LED power. For each set of binding experiments, MST measurement was carried out with Binding Affinity module in MO. Control program under Nano-RED Excitation. Datasets were processed with the MO. Affinity Analysis software (NanoTemper Technologies GmbH).

KMT9 [4] = biological target: T1, KMT9; test: Thermal shift assay of KMT9 upon inhibitor binding; settings: thermal shift at 500 μM
Description: For inhibitor testing, 1 μL of the compound, dissolved in DMSO at different concentrations, were added to a 96 well hard-shell PCR plate (Bio-Rad). Afterwards 4 μL of assay buffer (50 mM BTP, 1 mM MgCl2, 1 mM DTT, pH 8.5) were added, followed by 10 μL of 2×KMT9 (final concentration 2 μM) in assay buffer. After addition of 5 μL 4×SYPRO-Orange (Sigma) (final concentration 5×), the plate was spun for 1 min at 700 rpm, then shaken at 600 rpm for 15 minutes. After another […] spinning at 700 rpm for 1 min, measurement was performed using a CFX96 Touch Real-Time PCR Detection System (Bio-Rad). The plate was equilibrated at 20° C. for 4 minutes before heating gradually by 1° C. every 15 seconds until 95° C. After every step, the fluorescence was measured in FRET mode. The thermal shift at 500 μM is detected in K (Kelvin). For Example 9o, the thermal shift at 250 μM is detected in K (Kelvin). The obtained thermal shift obtained by adding the tested compound is shown in the table below as follows: shift ≤5 K is denoted with a “+”, shift >5 and ≤15 K is denoted with “++”, and shift >15 K is denoted with “+++”.

KMT9 [5] = biological target: T1, KMT9; test: Methyltransferase panel, 10-dose IC50 mode; assay type: biochemical; settings: Substrate: Histone H4; 1 μM SAM; read-out: Compound IC50* (M) KMI9542321
Description: as §1

[6] = test system: plurality of methyltransferases including DOT1L; test: Specificity across a plurality of methyltransferases; assay type: biochemical; settings: 10-dose IC50 mode starting at 10 μM, 1 μM SAM
Description: as §1

T1 sequence (Q9Y5N5 whole entry): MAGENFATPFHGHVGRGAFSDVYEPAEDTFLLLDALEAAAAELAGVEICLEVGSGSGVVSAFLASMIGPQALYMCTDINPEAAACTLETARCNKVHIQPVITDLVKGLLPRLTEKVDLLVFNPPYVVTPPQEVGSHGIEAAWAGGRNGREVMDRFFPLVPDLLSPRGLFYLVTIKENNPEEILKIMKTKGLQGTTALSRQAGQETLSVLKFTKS
T1 sequence (Q9UI30 whole entry partner): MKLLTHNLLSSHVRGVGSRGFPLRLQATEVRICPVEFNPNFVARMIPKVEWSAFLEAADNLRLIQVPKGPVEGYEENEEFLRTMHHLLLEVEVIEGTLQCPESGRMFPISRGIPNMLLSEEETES
Chain of SUV39H2 (Q9H5I1 whole entry): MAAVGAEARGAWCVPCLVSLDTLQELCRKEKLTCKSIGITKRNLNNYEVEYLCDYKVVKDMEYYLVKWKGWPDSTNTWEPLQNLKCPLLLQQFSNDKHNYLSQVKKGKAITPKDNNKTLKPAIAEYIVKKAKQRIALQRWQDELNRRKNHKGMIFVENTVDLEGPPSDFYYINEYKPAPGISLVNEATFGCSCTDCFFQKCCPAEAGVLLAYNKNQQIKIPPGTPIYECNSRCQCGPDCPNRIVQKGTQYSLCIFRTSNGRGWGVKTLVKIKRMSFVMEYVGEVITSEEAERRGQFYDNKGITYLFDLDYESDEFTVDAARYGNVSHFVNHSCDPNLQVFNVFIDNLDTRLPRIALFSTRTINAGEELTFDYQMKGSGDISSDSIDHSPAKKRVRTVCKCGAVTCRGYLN
Chain of SETD2 (Q9BYW2 whole entry): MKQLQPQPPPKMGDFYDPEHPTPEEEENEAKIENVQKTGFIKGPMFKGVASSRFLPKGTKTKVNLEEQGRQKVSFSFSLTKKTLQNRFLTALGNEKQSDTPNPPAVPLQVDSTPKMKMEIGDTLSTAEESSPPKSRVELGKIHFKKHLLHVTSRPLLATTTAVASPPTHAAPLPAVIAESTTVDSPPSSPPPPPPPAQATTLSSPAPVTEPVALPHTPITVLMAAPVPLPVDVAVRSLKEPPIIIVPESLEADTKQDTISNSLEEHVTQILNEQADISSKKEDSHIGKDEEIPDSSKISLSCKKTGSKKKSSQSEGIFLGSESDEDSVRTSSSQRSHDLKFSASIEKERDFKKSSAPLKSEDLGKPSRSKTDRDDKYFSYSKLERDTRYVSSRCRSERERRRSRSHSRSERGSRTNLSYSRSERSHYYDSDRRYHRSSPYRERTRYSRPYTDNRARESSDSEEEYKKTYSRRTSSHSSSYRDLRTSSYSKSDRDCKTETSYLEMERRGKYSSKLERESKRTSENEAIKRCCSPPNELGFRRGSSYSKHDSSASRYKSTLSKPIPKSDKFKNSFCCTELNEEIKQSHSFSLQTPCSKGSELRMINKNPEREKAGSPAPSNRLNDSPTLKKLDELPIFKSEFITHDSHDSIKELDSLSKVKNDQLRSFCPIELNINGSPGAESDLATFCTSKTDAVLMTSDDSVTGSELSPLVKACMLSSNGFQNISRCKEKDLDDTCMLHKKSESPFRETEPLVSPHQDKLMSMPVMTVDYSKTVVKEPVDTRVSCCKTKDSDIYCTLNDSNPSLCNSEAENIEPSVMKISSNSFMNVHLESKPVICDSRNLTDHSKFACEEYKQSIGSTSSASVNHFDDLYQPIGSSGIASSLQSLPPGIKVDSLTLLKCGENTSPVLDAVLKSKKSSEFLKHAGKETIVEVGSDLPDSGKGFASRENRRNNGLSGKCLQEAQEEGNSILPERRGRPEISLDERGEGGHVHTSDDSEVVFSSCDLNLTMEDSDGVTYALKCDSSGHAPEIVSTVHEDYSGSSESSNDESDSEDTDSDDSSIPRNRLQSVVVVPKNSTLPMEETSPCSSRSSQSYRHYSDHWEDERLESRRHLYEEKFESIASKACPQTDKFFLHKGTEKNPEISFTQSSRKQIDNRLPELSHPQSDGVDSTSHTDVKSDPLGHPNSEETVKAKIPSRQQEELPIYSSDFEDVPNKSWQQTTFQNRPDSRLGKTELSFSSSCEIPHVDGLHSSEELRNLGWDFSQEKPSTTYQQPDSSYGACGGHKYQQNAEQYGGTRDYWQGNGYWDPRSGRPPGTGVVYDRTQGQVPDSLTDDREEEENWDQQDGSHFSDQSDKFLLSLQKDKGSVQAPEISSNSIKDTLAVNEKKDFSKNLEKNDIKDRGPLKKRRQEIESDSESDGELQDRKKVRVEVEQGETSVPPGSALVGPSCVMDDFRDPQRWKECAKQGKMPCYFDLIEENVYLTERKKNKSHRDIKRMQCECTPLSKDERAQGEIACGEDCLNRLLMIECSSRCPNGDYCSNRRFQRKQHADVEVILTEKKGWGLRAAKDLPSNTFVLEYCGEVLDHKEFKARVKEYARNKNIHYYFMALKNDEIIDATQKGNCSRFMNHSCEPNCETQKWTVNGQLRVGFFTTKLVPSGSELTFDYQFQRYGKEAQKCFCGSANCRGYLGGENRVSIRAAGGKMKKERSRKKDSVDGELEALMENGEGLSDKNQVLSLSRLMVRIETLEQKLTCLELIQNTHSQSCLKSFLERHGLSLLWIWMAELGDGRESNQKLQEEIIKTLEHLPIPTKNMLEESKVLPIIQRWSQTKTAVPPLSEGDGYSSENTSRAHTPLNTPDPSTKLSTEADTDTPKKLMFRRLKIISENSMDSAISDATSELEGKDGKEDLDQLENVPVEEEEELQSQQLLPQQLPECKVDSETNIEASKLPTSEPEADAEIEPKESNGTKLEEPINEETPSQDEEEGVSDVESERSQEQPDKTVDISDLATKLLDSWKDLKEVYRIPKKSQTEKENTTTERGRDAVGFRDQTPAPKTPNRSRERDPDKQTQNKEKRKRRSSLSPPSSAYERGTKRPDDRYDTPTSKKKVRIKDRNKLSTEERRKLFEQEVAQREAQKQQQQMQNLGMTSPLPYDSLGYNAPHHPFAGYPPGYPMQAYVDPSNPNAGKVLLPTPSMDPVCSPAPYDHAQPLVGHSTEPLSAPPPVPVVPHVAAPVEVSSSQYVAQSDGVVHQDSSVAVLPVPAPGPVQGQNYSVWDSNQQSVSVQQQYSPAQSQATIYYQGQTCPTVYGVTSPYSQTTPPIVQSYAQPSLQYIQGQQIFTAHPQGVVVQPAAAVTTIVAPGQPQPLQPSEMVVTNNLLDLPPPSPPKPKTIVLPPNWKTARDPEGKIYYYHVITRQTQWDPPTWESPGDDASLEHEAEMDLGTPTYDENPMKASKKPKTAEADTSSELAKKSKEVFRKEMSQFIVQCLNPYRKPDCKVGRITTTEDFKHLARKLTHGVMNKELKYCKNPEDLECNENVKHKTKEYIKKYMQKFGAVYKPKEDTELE
Chain of SMYD3 (Q9H7B4 whole entry): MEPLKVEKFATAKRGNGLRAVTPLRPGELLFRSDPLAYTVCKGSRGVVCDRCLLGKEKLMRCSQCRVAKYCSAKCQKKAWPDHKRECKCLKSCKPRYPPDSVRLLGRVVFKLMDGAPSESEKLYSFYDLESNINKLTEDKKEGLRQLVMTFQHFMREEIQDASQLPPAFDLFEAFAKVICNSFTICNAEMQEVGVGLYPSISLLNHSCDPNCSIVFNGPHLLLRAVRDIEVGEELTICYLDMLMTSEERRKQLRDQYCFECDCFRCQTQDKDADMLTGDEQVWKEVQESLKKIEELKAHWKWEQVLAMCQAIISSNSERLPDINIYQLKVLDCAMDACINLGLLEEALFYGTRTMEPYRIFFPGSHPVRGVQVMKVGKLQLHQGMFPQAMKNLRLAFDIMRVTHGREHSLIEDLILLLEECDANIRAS
Chain of SUV420H1TV2 (Q4FZB7 other isoform, or with tags, fused parts or gaps): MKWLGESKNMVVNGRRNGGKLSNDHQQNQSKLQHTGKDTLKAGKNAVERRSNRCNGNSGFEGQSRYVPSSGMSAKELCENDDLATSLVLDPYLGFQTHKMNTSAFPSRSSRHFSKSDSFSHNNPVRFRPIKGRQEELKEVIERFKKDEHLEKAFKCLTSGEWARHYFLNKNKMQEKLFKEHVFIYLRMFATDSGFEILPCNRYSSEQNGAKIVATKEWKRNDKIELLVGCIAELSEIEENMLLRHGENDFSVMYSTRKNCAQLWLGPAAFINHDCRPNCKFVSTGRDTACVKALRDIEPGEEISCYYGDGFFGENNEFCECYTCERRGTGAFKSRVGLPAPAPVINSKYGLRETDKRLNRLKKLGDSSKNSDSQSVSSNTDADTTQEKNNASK
Chain of PRMT6 (Q96LA8 whole entry, species assumed): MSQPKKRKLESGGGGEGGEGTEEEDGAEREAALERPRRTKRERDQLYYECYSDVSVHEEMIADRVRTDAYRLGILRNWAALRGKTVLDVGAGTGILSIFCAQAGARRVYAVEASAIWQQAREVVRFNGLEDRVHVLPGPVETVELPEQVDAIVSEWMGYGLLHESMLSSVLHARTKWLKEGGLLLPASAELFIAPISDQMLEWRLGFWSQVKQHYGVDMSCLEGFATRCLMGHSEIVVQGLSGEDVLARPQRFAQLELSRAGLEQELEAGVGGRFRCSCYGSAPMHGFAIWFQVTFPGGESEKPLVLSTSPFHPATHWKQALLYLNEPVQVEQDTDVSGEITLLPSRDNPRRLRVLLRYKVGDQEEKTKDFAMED
Chain of SET7/9 (Q8WTS6 whole entry): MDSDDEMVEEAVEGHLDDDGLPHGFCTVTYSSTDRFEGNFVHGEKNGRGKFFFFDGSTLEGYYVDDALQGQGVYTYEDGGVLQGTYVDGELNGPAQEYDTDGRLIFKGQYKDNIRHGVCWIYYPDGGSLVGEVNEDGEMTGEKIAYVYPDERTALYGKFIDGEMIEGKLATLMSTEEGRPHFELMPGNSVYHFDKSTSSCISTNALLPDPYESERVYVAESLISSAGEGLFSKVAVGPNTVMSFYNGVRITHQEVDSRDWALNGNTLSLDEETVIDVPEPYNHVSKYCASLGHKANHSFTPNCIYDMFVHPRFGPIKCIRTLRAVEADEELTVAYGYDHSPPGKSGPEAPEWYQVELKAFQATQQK

Structure (SMILES): Nc1ncnc2c1ncn2[C@@H]1O[C@H](CSCC[C@H](N)C(=O)O)[C@@H](O)[C@H]1O [SAH, S-(5′-Adenosyl)-L-homocysteine]
- IC50 [1]: 26400 nM
- IC50 (DNMT3a): 329 nM
- IC50 (DNMT3b): 35.2 nM
- IC50 (DNMT3b/3L): 32.1 nM
- IC50 (GLP): 1210 nM
- IC50 (MLL1 Complex): 1170 nM
- IC50 (MLL3 Complex): 25400 nM
- IC50 (NRMT1): 1070 nM
- IC50 (NRMT2): 643 nM
- IC50 (NSD1): 4330 nM
- IC50 (PRMT3): 1880 nM
- IC50 (PRMT6): 199 nM
- IC50 (SET1b Complex): 5270 nM
- IC50 (SET7/9): 281000 nM
- IC50 (SETD2): 4080 nM
- IC50 (SMYD3): 12900 nM
- IC50 (SUV39H2): 102000 nM
- IC50 (SUV420H1TV2): 139000 nM

Structure (SMILES): CNc1ncnc2c1ccn2[C@@H]1C[C@H](CN(CCCNCCc2ccccc2)CC[C@H](N)C(=O)O)[C@@H](O)[C@H]1O [Compound 72b, (S)-2-amino-4-((((1R,2R,3S,4R)-2,3-dihydroxy-4-(4-(methylamino)-7H-pyrrolo[2,3-d]pyrimidin-7-yl)cyclopentyl)methyl)(3-(phenethylamino)propyl)amino)butanoic acid]
- IC50 (KMT9 [2]): < 100 nM
- Kd (KMT9 [3]): < 100 nM
- ΔTm at 500 µM (KMT9 [4]): 5 to 15 °C
- IC50 (KMT9 [5]): 2e-07 M
- specificity for KMT9-inhibition versus other methyltransferases [6]: specific for KMT9-inhibition
